From PMC6112376, “Comprehensive Analyses and Prioritization of Tox21 10K Chemicals Affecting Mitochondrial Function by in-Depth Mechanistic Studies” (Environmental Health Perspectives, 2018)
Where two headings read alike, the source gives them in different places.

Tests used:
[1] = tested on: Caenorhabditis elegans (Bristol N2); assay: C. elegans larval development and growth assay; conditions: Caenorhabditis elegans, read-out: LEC EXT: lowest effect concentration for extinction, a measure of nematode size
[2] = tested on: Nrf2/ARE (ARE-bla HepG2 cells); assay: ARE β-lactamase reporter gene assay; assay type: cell-based, human; conditions: Homo sapiens, HepG2; 16 h incubation; mean±SD of three experiments; read-out: ARE (HepG2) EC50
[3] = tested on: mitochondrial respiratory chain complex III; assay type: biochemical, rat
HepG2 cells [4] = conditions: cited from earlier work
[5] = tested on: isolated rat liver mitochondria; assay: Oxygen consumption, Clark-type oxygen electrode; assay type: biochemical
[6] = tested on: HeLa cells expressing YFP-Parkin; assay: Parkin translocation assay; assay type: cell-based, human
[7] = tested on: mitochondrial respiratory chain complex V; assay type: biochemical, rat
HepG2 cells [8] = assay: ROS-Glo hydrogen peroxide (ROS) assay; assay type: cell-based, human
[9] = molecular target: T1, mitochondrial respiratory chain complex II (Rattus norvegicus, UniProt P21913+Q641Z9+Q6PCT8+Q920L2); assay: Respiratory chain complex II activity; assay type: biochemical; conditions: tested up to 100μM
T1 construct: Submitochondrial particles were prepared by subjecting the intact rat mitochondria, isolated as described above, to three successive freeze–thaw cycles; from tissue; host or cells: rat liver mitochondria (submitochondrial particles)

rat primary hepatocytes [10] = assay: MMP assay in rat primary hepatocytes; conditions: Rattus norvegicus, Hepatocyte
[11] = tested on: mitochondrial respiratory chain complex IV; assay type: biochemical, rat
HepG2 cells [12] = assay: Intracellular ATP content (cell viability) assay; assay type: cell-based, human; conditions: Homo sapiens, HepG2, 40 h
hNSC = assay: MMP assay in human neural stem cells (hNSC); assay type: cell-based; conditions: Homo sapiens, Neural stem cell, 1 h, read-out: hNSC IC50 (MMP)
[13] = tested on: Caenorhabditis elegans (Bristol N2); conditions: Bristol N2 (wild type), Caenorhabditis elegans, in vivo
rat primary hepatocytes [14] = tested on: rat primary hepatocytes
HepG2 cells [15] = assay: cells; conditions: Homo sapiens; for IC50: HepG2, 1 h
[16] = tested on: mitochondrial respiratory chain complex I; assay type: biochemical, rat

T1 sequence (Q920L2 35-656): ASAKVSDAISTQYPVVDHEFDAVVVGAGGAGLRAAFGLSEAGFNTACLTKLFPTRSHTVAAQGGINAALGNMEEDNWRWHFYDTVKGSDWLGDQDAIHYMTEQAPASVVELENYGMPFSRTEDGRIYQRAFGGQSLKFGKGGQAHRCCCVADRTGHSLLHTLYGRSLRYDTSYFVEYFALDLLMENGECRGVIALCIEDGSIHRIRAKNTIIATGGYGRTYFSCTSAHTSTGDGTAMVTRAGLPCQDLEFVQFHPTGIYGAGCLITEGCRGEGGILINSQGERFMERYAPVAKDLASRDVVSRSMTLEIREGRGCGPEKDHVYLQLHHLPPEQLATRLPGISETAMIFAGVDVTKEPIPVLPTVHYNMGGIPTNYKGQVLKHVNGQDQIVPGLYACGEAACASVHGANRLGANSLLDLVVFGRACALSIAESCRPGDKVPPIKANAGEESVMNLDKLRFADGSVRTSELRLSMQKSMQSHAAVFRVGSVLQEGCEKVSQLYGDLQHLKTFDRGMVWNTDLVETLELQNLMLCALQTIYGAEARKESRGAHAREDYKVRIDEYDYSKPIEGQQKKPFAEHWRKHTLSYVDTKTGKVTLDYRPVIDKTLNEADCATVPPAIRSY
T1 sequence (P21913 31-282): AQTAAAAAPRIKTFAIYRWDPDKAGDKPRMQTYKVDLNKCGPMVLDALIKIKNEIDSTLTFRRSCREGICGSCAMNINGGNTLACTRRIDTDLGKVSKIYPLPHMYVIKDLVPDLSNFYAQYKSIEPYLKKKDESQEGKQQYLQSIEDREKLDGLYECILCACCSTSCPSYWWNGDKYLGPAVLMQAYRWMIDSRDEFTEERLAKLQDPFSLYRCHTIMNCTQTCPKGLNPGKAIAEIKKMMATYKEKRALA
T1 sequence (Q641Z9 1-169): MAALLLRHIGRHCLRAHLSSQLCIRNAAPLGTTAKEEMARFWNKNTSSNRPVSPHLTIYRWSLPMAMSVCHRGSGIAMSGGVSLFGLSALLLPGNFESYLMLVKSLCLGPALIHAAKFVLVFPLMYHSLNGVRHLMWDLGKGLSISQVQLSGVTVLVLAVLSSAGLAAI
T1 sequence (Q6PCT8 57-159): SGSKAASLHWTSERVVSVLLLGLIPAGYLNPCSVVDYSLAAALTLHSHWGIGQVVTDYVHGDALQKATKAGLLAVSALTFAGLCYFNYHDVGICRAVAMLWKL

C=C(c1ccc(C(=O)O)cc1)c1cc2c(cc1C)C(C)(C)CCC2(C)C [Bexarotene, reference compound]
minimal effective concentration [1]: 10 µM
EC50 [2]: 11.5 ± 0.75 µM
Complex III % inhibition (activity call) [3]: Inactive
MMP assays efficacy (%) qHTS-HepG2 (HepG2 cells [4]): -124±6%
IC50 (HepG2 cells [4]; read-out: MMP assays IC50 (µM) qHTS-HepG2): 16.5 ± 3.95 µM
Potential Mechanism [5]: Uncoupler + inhibitor
I-ADP, % of control (O2 consumption rate) ([5]; 0.8 µM): 92 (45.5) % of control
I-sub, % of control (O2 consumption rate) ([5]; 0.8 µM): 108 (17.4) % of control
II-ADP, % of control (O2 consumption rate) ([5]; 0.8 µM): 84 (65.0) % of control
II-sub, % of control (O2 consumption rate) ([5]; 0.8 µM): 93 (28.5) % of control
I-ADP, % of control (O2 consumption rate) ([5]; 4 µM): 86 (42.6) % of control
II-ADP, % of control (O2 consumption rate) ([5]; 4 µM): 81 (62.5) % of control
II-sub, % of control (O2 consumption rate) ([5]; 4 µM): 97 (29.8) % of control
I-ADP, % of control (O2 consumption rate) ([5]; 20 µM): 61 (29.8) % of control
I-sub, % of control (O2 consumption rate) ([5]; 20 µM): 155 (25.0) % of control
II-ADP, % of control (O2 consumption rate) ([5]; 20 µM): 39 (30.1) % of control
II-sub, % of control (O2 consumption rate) ([5]; 20 µM): 107 (32.7) % of control
I-ADP, % of control (O2 consumption rate) ([5]; 100 µM): 5 (2.8) % of control
I-sub, % of control (O2 consumption rate) ([5]; 100 µM): 36 (4.9) % of control
II-ADP, % of control (O2 consumption rate) ([5]; 100 µM): 6 (3.8) % of control
II-sub, % of control (O2 consumption rate) ([5]; 100 µM): 24 (5.1) % of control
Parkin recruitment [6]: Inactive
Complex V % inhibition (activity call) [7]: Inactive
ROS (HepG2) EC50 (HepG2 cells [8]): Inactive
Complex II % inhibition (activity call) [9]: Inactive
IC50 (rat primary hepatocytes [10]; 1 h, read-out: Rat hepatocytes IC50 (MMP)): 39.9 µM
IC50 (rat primary hepatocytes [10]; read-out: MMP assays IC50 (µM) Rat Hepatocytes): 9.08 ± 1.16 µM
Complex IV % inhibition (activity call) [11]: Inactive
IC50 (HepG2 cells [12]; read-out: ATP (HepG2, galactose) IC50): 63.2 µM
IC50 (HepG2 cells [12]; read-out: ATP (HepG2, glucose) IC50): 63.2 µM
IC50 (hNSC): 22.3 µM
LEC (lowest effect concentration), larval growth assay [13]: ≤ 10 µM
MMP assays efficacy (%) Rat Hepatocytes (rat primary hepatocytes [14]): -112±7%
Rat hepatocytes (efficacy) (MMP) (rat primary hepatocytes [14]): 39.9±5.09 ( −93.8±8.55 ) %
IC50 (HepG2 cells [15]; read-out: HepG2 IC50 Galactose (MMP)): 50.2 µM
IC50 (HepG2 cells [15]; read-out: HepG2 IC50 Glucose (MMP)): 50 µM
Emax (HepG2 cells [15]; HepG2, read-out: MMP assays efficacy (%) HepG2): 106%
Complex I % inhibition (activity call) [16]: Inactive
